Experimental data from PMC8348562, “Potential Assessment of UGT2B17 Inhibition by Salicylic Acid in Human Supersomes In Vitro” (Molecules, 2021).

T1: UGT2B17 (Homo sapiens, UniProt O75795)
T1 construct: recombinant human UGT2B17 supersomes (insect cells infected with baculovirus)
T1 sequence (O75795 24-530): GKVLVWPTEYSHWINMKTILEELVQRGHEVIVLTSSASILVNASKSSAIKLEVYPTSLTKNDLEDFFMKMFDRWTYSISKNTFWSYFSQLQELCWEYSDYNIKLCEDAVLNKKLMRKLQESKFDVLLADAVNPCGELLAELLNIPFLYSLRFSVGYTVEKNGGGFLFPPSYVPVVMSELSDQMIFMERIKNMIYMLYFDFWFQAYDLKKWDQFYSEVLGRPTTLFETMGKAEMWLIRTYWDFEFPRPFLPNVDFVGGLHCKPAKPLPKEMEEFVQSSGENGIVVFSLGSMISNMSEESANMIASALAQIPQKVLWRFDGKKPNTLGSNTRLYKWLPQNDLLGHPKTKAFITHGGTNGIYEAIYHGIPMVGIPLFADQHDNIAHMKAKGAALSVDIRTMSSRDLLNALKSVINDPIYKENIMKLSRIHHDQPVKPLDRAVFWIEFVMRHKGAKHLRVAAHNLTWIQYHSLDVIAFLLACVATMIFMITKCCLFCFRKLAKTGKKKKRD


How the values were obtained:
UGT2B17 = target: T1, UGT2B17; assay: HPLC testosterone glucuronidation assay in recombinant supersomes, Lineweaver-Burk analysis at […] salicylic acid; type: biochemical
purified protein = substrate: C[C@]12CC[C@H]3[C@@H](CCC4=CC(=O)CC[C@@]43C)[C@@H]1CC[C@@H]2O; assay: purified protein; settings: UDPGA; MgCl2

| Molecule | inhibition mode (UGT2B17) | Km (purified protein) [µM] |
| --- | --- | --- |
| O=C(O)c1ccccc1O [salicylic acid] | UGT2B17 enzyme activity was inhibited uncompetitively by salicylic acid based on the in vitro inhibition study in human supersomes |  |
| UGT2B17 (Homo sapiens) (protein) GKVLVWPTEYSHWINMKTILEELVQRGHEVIVLTSSASILVNASKSSAIKLEVYPTSLTKNDLEDFFMKMFDRWTYSISKNTFWSYFSQLQELCWEYSDYNIKLCEDAVLNKKLMRKLQESKFDVLLADAVNPCGELLAELLNIPFLYSLRFSVGYTVEKNGGGFLFPPSYVPVVMSELSDQMIFMERIKNMIYMLYFDFWFQAYDLKKWDQFYSEVLGRPTTLFETMGKAEMWLIRTYWDFEFPRPFLPNVDFVGGLHCKPAKPLPKEMEEFVQSSGENGIVVFSLGSMISNMSEESANMIASALAQIPQKVLWRFDGKKPNTLGSNTRLYKWLPQNDLLGHPKTKAFITHGGTNGIYEAIYHGIPMVGIPLFADQHDNIAHMKAKGAALSVDIRTMSSRDLLNALKSVINDPIYKENIMKLSRIHHDQPVKPLDRAVFWIEFVMRHKGAKHLRVAAHNLTWIQYHSLDVIAFLLACVATMIFMITKCCLFCFRKLAKTGKKKKRD |  | 259.74 |
